Measured values: US10556914B2, “Substituted isoxazolopyridazinones and isothiazolopyridazinones and methods of use” (AbbVie Inc., priority 2015, dated 2020)

target: GABA-B receptor (Rattus norvegicus (Rat), UniProt O88871+Q9Z0U4); assay: [35S]GTPgS Binding Assay (rat brain cortex membranes, native receptor); format: biochemical; conditions: rat cortical membranes; in the presence of 1 μM GABA (EC25); basal binding 0%, maximal binding (1 mM GABA) 100%
Protocol: Preparation of Rat Brain Membranes for Native Receptor Assays
Membranes from rat brain cortex were prepared as described in detail by Olpe et al. and stored at concentrations of 1.66 mg/mL protein at −80° C. until required. (Olpe, H.-R, et al. Eur J Pharmacol 1990; 187: 27-38).
[^35S]GTPgS Binding Assay
The samples were incubated at room temperature for 60 minutes on a shaker. The incubation was stopped by rapid vacuum filtration over glass-fiber filter plates (UniFilter-96 well, GF/B membrane plates, PerkinElmer) using a 96-well plate harvester (TOMTEK© Harvester). The UniFilter plate was washed five times with ice-cold wash buffer (50 mM Tris-HCl buffer, pH 7.7, 10 mM MgCl2, and 100 mM NaCl. After filtration the plate was dried for 90 minutes at 55° C. The plates were closed on the bottom with black sealing membranes, and liquid scintillation cocktail (35 μL, Betaplate Scint, PerkinElmer) was added to each well. After sealing the top of the plate, an additional incubation step of 90 minutes at room temperature followed before measuring the plate. The amount of membrane-bound [^35S]GTPgS was measured using a 96-well plate reader (Microbeta®, PerkinElmer). Nonspecific binding was measured in the presence of unlabeled 10 μM of GTPgS (Millipore) and without GABA. Basal binding was measured in the absence of 1 μM GABA, and maximal binding was measured in the presence of GABA using 1 mM GABA concentrations.
Data analysis. The concentration-response curves of compounds of the present disclosure in the presence of EC25 of GABA-B receptor agonist were generated using the GraphPad Prism® program (GraphPad Software, San Diego, Calif.). Data was normalized using basal binding as 0% and maximal binding as 100%. The curves were fitted by nonlinear regression allowing determination of EC50 values from sigmoidal dose-response curves. Each curve was performed using triplicate sample per date point and 10 concentrations.

Chain of GABA-B receptor (Q9Z0U4 17-960): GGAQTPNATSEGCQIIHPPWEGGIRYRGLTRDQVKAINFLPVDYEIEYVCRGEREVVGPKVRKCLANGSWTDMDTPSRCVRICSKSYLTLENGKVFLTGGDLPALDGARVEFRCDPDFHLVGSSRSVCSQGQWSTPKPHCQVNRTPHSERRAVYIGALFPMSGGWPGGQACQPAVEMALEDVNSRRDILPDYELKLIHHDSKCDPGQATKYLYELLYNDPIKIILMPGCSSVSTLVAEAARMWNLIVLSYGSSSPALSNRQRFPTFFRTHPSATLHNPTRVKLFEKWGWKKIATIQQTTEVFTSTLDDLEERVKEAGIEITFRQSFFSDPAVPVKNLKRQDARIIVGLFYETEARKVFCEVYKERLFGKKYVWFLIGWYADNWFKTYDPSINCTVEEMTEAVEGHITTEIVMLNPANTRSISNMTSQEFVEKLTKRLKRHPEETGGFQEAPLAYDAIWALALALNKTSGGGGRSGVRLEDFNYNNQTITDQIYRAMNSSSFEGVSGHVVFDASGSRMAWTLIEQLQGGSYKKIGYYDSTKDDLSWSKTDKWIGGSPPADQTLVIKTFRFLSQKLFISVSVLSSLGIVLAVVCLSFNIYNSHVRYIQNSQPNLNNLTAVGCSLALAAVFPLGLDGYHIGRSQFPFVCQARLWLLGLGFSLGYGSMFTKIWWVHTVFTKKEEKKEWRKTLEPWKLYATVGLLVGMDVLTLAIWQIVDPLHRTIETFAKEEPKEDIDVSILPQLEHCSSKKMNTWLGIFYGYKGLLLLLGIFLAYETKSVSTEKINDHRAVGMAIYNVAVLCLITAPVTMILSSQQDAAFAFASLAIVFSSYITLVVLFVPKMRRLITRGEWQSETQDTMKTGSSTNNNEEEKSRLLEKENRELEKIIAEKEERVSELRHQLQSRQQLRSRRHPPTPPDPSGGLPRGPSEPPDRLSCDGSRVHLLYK
Chain of GABA-B receptor (O88871 41-940): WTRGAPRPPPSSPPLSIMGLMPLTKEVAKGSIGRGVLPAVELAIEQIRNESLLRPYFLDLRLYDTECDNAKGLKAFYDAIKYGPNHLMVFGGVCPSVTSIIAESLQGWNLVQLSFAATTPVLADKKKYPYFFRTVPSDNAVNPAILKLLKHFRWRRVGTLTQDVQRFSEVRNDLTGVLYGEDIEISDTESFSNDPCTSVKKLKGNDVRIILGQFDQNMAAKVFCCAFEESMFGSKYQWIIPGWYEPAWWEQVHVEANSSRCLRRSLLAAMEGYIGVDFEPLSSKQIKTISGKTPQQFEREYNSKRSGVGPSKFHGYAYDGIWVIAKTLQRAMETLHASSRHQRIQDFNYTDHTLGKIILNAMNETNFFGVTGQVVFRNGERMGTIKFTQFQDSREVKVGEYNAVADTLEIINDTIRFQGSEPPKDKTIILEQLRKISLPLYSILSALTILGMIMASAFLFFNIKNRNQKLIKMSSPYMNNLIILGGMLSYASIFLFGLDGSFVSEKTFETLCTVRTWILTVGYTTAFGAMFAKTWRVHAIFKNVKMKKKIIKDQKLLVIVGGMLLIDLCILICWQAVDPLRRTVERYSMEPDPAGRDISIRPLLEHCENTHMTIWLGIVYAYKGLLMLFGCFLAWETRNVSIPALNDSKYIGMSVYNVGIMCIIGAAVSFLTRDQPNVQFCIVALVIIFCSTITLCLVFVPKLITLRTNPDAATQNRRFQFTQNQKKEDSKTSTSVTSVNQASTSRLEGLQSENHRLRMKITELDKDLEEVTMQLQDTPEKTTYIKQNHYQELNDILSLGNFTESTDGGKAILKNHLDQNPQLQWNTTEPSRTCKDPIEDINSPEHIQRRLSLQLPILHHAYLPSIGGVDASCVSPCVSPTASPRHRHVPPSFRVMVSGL

SMILES	EC50
CC(=O)Nc1cccc(-c2nn([C@H](C)c3ccc(Cl)cc3)c(=O)c3c(C)noc23)c1 [Example 34, N-(3-{5-[(1R)-1-(4-chlorophenyl)ethyl]-3-methyl-4-oxo-4,5-dihydro[1,2]oxazolo[4,5-d]pyridazin-7-yl}phenyl)acetamide]	4.81 µM
COc1ccc(OC)c(-c2nn([C@H](C)c3ccc(Cl)cc3)c(=O)c3c(C4CC4)noc23)c1 [Example 128, 5-[(1R)-1-(4-chlorophenyl)ethyl]-3-cyclopropyl-7-(2,5-dimethoxyphenyl)-[1,2]oxazolo[4,5-d]pyridazin-4(5H)-one]	> 10 µM
Cc1noc2c(-c3cc(F)nc(F)c3)nn(C(C)c3ccc(Cl)cc3)c(=O)c12 (centres unmarked) [Example 4, 5-[1-(4-chlorophenyl)ethyl]-7-(2,6-difluoropyridin-4-yl)-3-methyl[1,2]oxazolo[4,5-d]pyridazin-4(5H)-one]	1.66 µM
COc1ccc(OC)c(-c2nn(C(C)c3ccc(Cl)cc3)c(=O)c3c(C)noc23)c1 (centres unmarked) [Example 21, 5-[1-(4-chlorophenyl)ethyl]-7-(2,5-dimethoxyphenyl)-3-methyl[1,2]oxazolo[4,5-d]pyridazin-4(5H)-one]	0.229 µM
Cc1noc2c(-c3cc(Cl)ccc3N)nn(C(C)c3ccc(Cl)cc3)c(=O)c12 (centres unmarked) [Example 6, 7-(2-amino-5-chlorophenyl)-5-[1-(4-chlorophenyl)ethyl]-3-methyl[1,2]oxazolo[4,5-d]pyridazin-4(5H)-one]	1.96 µM
Cc1nn(C(C)c2ccc(Cl)cc2)c(=O)c2c(C)noc12 (centres unmarked) [Example 114, 5-[1-(4-chlorophenyl)ethyl]-3,7-dimethyl[1,2]oxazolo[4,5-d]pyridazin-4(5H)-one]	3.8 µM
Cc1nn([C@@H](C)c2ccc(Cl)cc2)c(=O)c2c(C)noc12 (single isomer, unassigned) [Example 31]	1.81 µM
Cc1nn(CCc2ccc(Cl)cc2)c(=O)c2c(C)noc12 [Example 60, 5-[2-(4-chlorophenyl)ethyl]-3,7-dimethyl[1,2]oxazolo[4,5-d]pyridazin-4(5H)-one]	> 10 µM
CCc1nn([C@H](c2ccccc2)c2ccc(Cl)cc2)c(=O)c2c(CC)noc12 (single isomer, unassigned) [Example 75]	1.76 µM
CC(=O)Nc1cccc(-c2nn([C@@H](C)c3ccc(Cl)cc3)c(=O)c3c(C)noc23)c1 [Example 72, N-(3-{5-[(1S)-1-(4-chlorophenyl)ethyl]-3-methyl-4-oxo-4,5-dihydro[1,2]oxazolo[4,5-d]pyridazin-7-yl}phenyl)acetamide]	7.7 µM
CC(=O)Nc1cccc(-c2nn(Cc3cc(C(F)(F)F)ccc3F)c(=O)c3c(C)noc23)c1 [Example 85, N-(3-{5-[2-fluoro-5-(trifluoromethyl)benzyl]-3-methyl-4-oxo-4,5-dihydro[1,2]oxazolo[4,5-d]pyridazin-7-yl}phenyl)acetamide]	2.62 µM
Cc1noc2c(-c3cc(F)ccc3N)nn(C(C)c3ccc(Cl)cc3)c(=O)c12 (centres unmarked) [Example 97, 7-(2-amino-5-fluorophenyl)-5-[1-(4-chlorophenyl)ethyl]-3-methyl[1,2]oxazolo[4,5-d]pyridazin-4(5H)-one]	1.85 µM
COc1ccc(NC(C)=O)cc1-c1nn([C@H](C)c2ccc(Cl)cc2)c(=O)c2c(C)noc12 [Example 40, N-(3-{5-[(1R)-1-(4-chlorophenyl)ethyl]-3-methyl-4-oxo-4,5-dihydro[1,2]oxazolo[4,5-d]pyridazin-7-yl}-4-methoxyphenyl)acetamide]	> 10 µM
COc1ccccc1-c1nn(Cc2ccc(C(F)(F)F)cc2)c(=O)c2c(C)noc12 [Example 118, 7-(2-methoxyphenyl)-3-methyl-5-[4-(trifluoromethyl)benzyl][1,2]oxazolo[4,5-d]pyridazin-4(5H)-one]	2.93 µM

The next lines start with the values.

EC50	SMILES
2.11 µM	CCc1noc2c(-c3cccc(NC(C)=O)c3)nn(Cc3ccc(Cl)cc3)c(=O)c12 [Example 129, N-{3-[5-(4-chlorobenzyl)-3-ethyl-4-oxo-4,5-dihydro[1,2]oxazolo[4,5-d]pyridazin-7-yl]phenyl}acetamide]
0.033 µM	COc1ccc(NC(C)=O)cc1-c1nn([C@H](C)c2ccc(C(F)(F)F)cc2)c(=O)c2c(C)noc12 [Example 105, N-[4-methoxy-3-(3-methyl-4-oxo-5-{(1R)-1-[4-(trifluoromethyl)phenyl]ethyl}-4,5-dihydro[1,2]oxazolo[4,5-d]pyridazin-7-yl)phenyl]acetamide]
0.847 µM	Cc1noc2c(-c3cccc(C(N)=O)c3)nn(C(C)c3ccc(Cl)cc3)c(=O)c12 (centres unmarked) [Example 106, 3-{5-[1-(4-chlorophenyl)ethyl]-3-methyl-4-oxo-4,5-dihydro[1,2]oxazolo[4,5-d]pyridazin-7-yl}benzamide]
0.389 µM	CC(=O)Nc1ccc(C)c(-c2nn(C(C)c3ccc(Cl)cc3)c(=O)c3c(C)noc23)c1 (centres unmarked) [Example 18, N-(3-{5-[1-(4-chlorophenyl)ethyl]-3-methyl-4-oxo-4,5-dihydro[1,2]oxazolo[4,5-d]pyridazin-7-yl}-4-methylphenyl)acetamide]
0.935 µM	CC(=O)Nc1cccc(-c2nn(Cc3ccc(Cl)cc3)c(=O)c3c(C)noc23)c1 [Example 70, N-{3-[5-(4-chlorobenzyl)-3-methyl-4-oxo-4,5-dihydro[1,2]oxazolo[4,5-d]pyridazin-7-yl]phenyl}acetamide]
0.347 µM	Cc1noc2c(-c3ccc4cc[nH]c4c3)nn(C(C)c3ccc(Cl)cc3)c(=O)c12 (centres unmarked) [Example 12, 5-[1-(4-chlorophenyl)ethyl]-7-(1H-indol-6-yl)-3-methyl[1,2]oxazolo[4,5-d]pyridazin-4(5H)-one]
2.48 µM	Cc1noc2c(-c3cc(F)cc(F)c3N)nn(C(C)c3ccc(Cl)cc3)c(=O)c12 (centres unmarked) [Example 77, 7-(2-amino-3,5-difluorophenyl)-5-[1-(4-chlorophenyl)ethyl]-3-methyl[1,2]oxazolo[4,5-d]pyridazin-4(5H)-one]
0.056 µM	CNC(=O)c1ccc(OC)c(-c2nn(C(C)c3ccc(Cl)cc3)c(=O)c3c(C)noc23)c1 (centres unmarked) [Example 119, 3-{5-[1-(4-chlorophenyl)ethyl]-3-methyl-4-oxo-4,5-dihydro[1,2]oxazolo[4,5-d]pyridazin-7-yl}-4-methoxy-N-methylbenzamide]
2.69 µM	Cc1noc2c(-c3cncc(F)c3)nn(C(C)c3ccc(Cl)cc3)c(=O)c12 (centres unmarked) [Example 22, 5-[1-(4-chlorophenyl)ethyl]-7-(5-fluoropyridin-3-yl)-3-methyl[1,2]oxazolo[4,5-d]pyridazin-4(5H)-one]
3.2 µM	COCc1noc2c(-c3cccc(NC(C)=O)c3)nn(Cc3ccc(Cl)cc3)c(=O)c12 [Example 27, N-{3-[5-(4-chlorobenzyl)-3-(methoxymethyl)-4-oxo-4,5-dihydro[1,2]oxazolo[4,5-d]pyridazin-7-yl]phenyl}acetamide]
3.63 µM	CC(=O)Nc1c(F)ccc(-c2nn([C@H](C)c3ccc(C(F)(F)F)cc3)c(=O)c3c(C)noc23)c1C [Example 112, N-[6-fluoro-2-methyl-3-(3-methyl-4-oxo-5-{(1R)-1-[4-(trifluoromethyl)-phenyl]ethyl}-4,5-dihydro[1,2]oxazolo[4,5-d]pyridazin-7-yl)phenyl]acetamide]
> 10 µM	Cc1nn([C@H](C)c2ccc(Cl)cc2)c(=O)c2c(C)noc12 (single isomer, unassigned) [Example 58]
1.74 µM	COc1ccc(OC)c(-c2nn(Cc3ccc(C(F)(F)F)cc3)c(=O)c3c(C)noc23)c1 [Example 95, 7-(2,5-dimethoxyphenyl)-3-methyl-5-[4-(trifluoromethyl)benzyl][1,2]oxazolo[4,5-d]pyridazin-4(5H)-one]
> 10 µM	Cc1noc2c(-c3cccc(F)c3)nn(Cc3ccc(Cl)cc3)c(=O)c12 [Example 23, 5-(4-chlorobenzyl)-7-(3-fluorophenyl)-3-methyl[1,2]oxazolo[4,5-d]pyridazin-4(5H)-one]
0.283 µM	CC(=O)Nc1ccc(OC(F)(F)F)c(-c2nn(C(C)c3ccc(Cl)cc3)c(=O)c3c(C)noc23)c1 (centres unmarked) [Example 49, N-[3-{5-[1-(4-chlorophenyl)ethyl]-3-methyl-4-oxo-4,5-dihydro[1,2]oxazolo[4,5-d]pyridazin-7-yl}-4-(trifluoromethoxy)phenyl]acetamide]
1.55 µM	COc1ccc(-c2nn(Cc3cc(C(F)(F)F)ccc3F)c(=O)c3c(C)noc23)c(OC)c1 [Example 48, 7-(2,4-dimethoxyphenyl)-5-[2-fluoro-5-(trifluoromethyl)benzyl]-3-methyl[1,2]oxazolo[4,5-d]pyridazin-4(5H)-one]
> 10 µM	CNC(=O)c1ccc(OC)c(-c2nn([C@H](C)c3ccc(Cl)cc3)c(=O)c3c(C)noc23)c1 [Example 111, 3-{5-[(1R)-1-(4-chlorophenyl)ethyl]-3-methyl-4-oxo-4,5-dihydro[1,2]oxazolo[4,5-d]pyridazin-7-yl}-4-methoxy-N-methylbenzamide]
2.11 µM	CC(=O)Nc1cc(-c2nn(Cc3ccc(Cl)cc3)c(=O)c3c(C)noc23)ccc1F [Example 8]
